This note sets out measurements from the NIST ThermoML archive (doi:10.1021/je034078h).

This series in a line: xn = mol fraction of the nth substance listed. Particulars: 101.3 kPa, Liquid; for viscosity: Capillary tube (Ostwald / Ubbelohde) method; for electrical conductivity: Shanghai Precision & Scientific Instrument Co., LTD (DDS-307).

Numbers after ± are expanded uncertainties.

As a reminder, the viscosity is the internal friction of a fluid under shear. Take `CCCCn1cc[n+](C)c1.F[P-](F)(F)(F)(F)F` [1-butyl-3-methylimidazolium hexafluorophosphate] + CCO: the viscosity stood at 200.6 ± 8.7 mPa·s (288.15 K, x2 = 0.2); 48 ± 1.7 mPa·s (288.15 K, x2 = 0.48); 148.1 ± 6.2 mPa·s (293.15 K, x2 = 0.2); 37.7 ± 1.3 mPa·s (293.15 K, x2 = 0.48); 113.7 ± 4.5 mPa·s (298.15 K, x2 = 0.2); 30.1 ± 1 mPa·s (298.15 K, x2 = 0.48). The viscosity (303.15 K, x2 = 0.2) amounted to 88.4 ± 3.4 mPa·s; the viscosity (303.15 K, x2 = 0.48) is on record as 24.8 ± 0.8 mPa·s; the viscosity (308.15 K, x2 = 0.2) came to 71.5 ± 2.7 mPa·s; the viscosity (308.15 K, x2 = 0.48) is reported as 21 ± 0.7 mPa·s. For the same compound, the electrical conductivity was determined as 0.00302 ± 0.00018 S/m (288.15 K, x2 = 0.2); 0.0068 ± 0.00041 S/m (288.15 K, x2 = 0.48); 0.00336 ± 0.0002 S/m (293.15 K, x2 = 0.2); 0.00733 ± 0.00044 S/m (293.15 K, x2 = 0.48); 0.0038 ± 0.00023 S/m (298.15 K, x2 = 0.2); 0.00798 ± 0.00048 S/m (298.15 K, x2 = 0.48). Moreover, the electrical conductivity reads like this: (303.15 K, x2 = 0.2) 0.0043 ± 0.00026 S/m; (303.15 K, x2 = 0.48) 0.00863 ± 0.00052 S/m; (308.15 K, x2 = 0.2) 0.00475 ± 0.00029 S/m; (308.15 K, x2 = 0.48) 0.00933 ± 0.00056 S/m.

Take `CCCCn1cc[n+](C)c1.F[P-](F)(F)(F)(F)F` [1-butyl-3-methylimidazolium hexafluorophosphate] + CC(C)=O: the viscosity (288.15 K, x2 = 0.2) turned out to be 165 ± 6.9 mPa·s; the viscosity (288.15 K, x2 = 0.48) was found to be 25.1 ± 0.9 mPa·s; the viscosity (293.15 K, x2 = 0.2) was 127 ± 5.1 mPa·s; the viscosity (293.15 K, x2 = 0.48) was found to be 21.2 ± 0.7 mPa·s; the viscosity (298.15 K, x2 = 0.2) is 100.2 ± 3.9 mPa·s; the viscosity (298.15 K, x2 = 0.48) was 18.2 ± 0.6 mPa·s. Further, the viscosity (303.15 K, x2 = 0.2) is listed as 79.8 ± 3 mPa·s; the viscosity (303.15 K, x2 = 0.48) was 16 ± 0.5 mPa·s; the viscosity (308.15 K, x2 = 0.2) was 64.1 ± 2.4 mPa·s; the viscosity (308.15 K, x2 = 0.48) was determined as 13.8 ± 0.5 mPa·s. Also, the electrical conductivity by setting is: (288.15 K, x2 = 0.2) 0.00298 ± 0.00018 S/m; (288.15 K, x2 = 0.48) 0.00925 ± 0.00056 S/m; (293.15 K, x2 = 0.2) 0.00342 ± 0.00021 S/m; (293.15 K, x2 = 0.48) 0.00965 ± 0.00058 S/m; (298.15 K, x2 = 0.2) 0.00375 ± 0.00023 S/m; (298.15 K, x2 = 0.48) 0.0102 ± 0.00061 S/m. For the same compound, the electrical conductivity by setting is: (303.15 K, x2 = 0.2) 0.00429 ± 0.00026 S/m; (303.15 K, x2 = 0.48) 0.0106 ± 0.00064 S/m; (308.15 K, x2 = 0.2) 0.00467 ± 0.00028 S/m; (308.15 K, x2 = 0.48) 0.011 ± 0.00066 S/m.

For `CCCCn1cc[n+](C)c1.F[P-](F)(F)(F)(F)F` [1-butyl-3-methylimidazolium hexafluorophosphate] + O, the viscosity worked out at 166.4 ± 9.4 mPa·s (293.15 K, x2 = 0.2); 128.7 ± 5.2 mPa·s (298.15 K, x2 = 0.2); 99.2 ± 3.9 mPa·s (303.15 K, x2 = 0.2); 78.2 ± 3.4 mPa·s (308.15 K, x2 = 0.2). For the same compound, the electrical conductivity is 0.0033 ± 0.0002 S/m (293.15 K, x2 = 0.2); 0.00372 ± 0.00022 S/m (298.15 K, x2 = 0.2); 0.00429 ± 0.00026 S/m (303.15 K, x2 = 0.2); 0.00478 ± 0.00029 S/m (308.15 K, x2 = 0.2).
